In ChEMBL document CHEMBL1201862, “PubChem BioAssay data set” (2004):
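48-hour exposure; five concentrations; linearly interpolated endpoints. At the GI50, growth is halved.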 The source made the active and inactive calls. Rule as the data show it: active = GI50 up to about 1.1 µM and inactive = higher.

Tests used:
Test in all cases: NCI tumour cell line growth inhibition, 48 h
786-0 = tested on: 786-0
ACHN = tested on: ACHN
BT-549 = tested on: BT-549
CAKI-1 = tested on: CAKI-1
COLO 205 = tested on: COLO 205
DU-145 = tested on: DU-145
HCT-116 = tested on: HCT-116
HCT-15 = tested on: HCT-15
KM12 = tested on: KM12
MDA-N = tested on: MDA-N
Malme-3M = tested on: Malme-3M
NCI-H226 = tested on: NCI-H226
OVCAR-3 = tested on: OVCAR-3
OVCAR-8 = tested on: OVCAR-8
RPMI-8226 = tested on: RPMI-8226
SF-268 = tested on: SF-268
SF-295 = tested on: SF-295
SW-620 = tested on: SW-620
UACC-257 = tested on: UACC-257

| SMILES | GI50 (786-0) | GI50 (ACHN) | GI50 (BT-549) | GI50 (CAKI-1) | GI50 (COLO 205) | GI50 (DU-145) | GI50 (HCT-116) | GI50 (HCT-15) [µM] | GI50 (KM12) | GI50 (MDA-N) | GI50 (Malme-3M) | GI50 (NCI-H226) | GI50 (OVCAR-3) | GI50 (OVCAR-8) | GI50 (RPMI-8226) | GI50 (SF-268) | GI50 (SF-295) | GI50 (SW-620) | GI50 (UACC-257) |
| --- | --- | --- | --- | --- | --- | --- | --- | --- | --- | --- | --- | --- | --- | --- | --- | --- | --- | --- | --- |
| COc1cc2cc(C(=O)N3CC(CCl)c4ccc([N+](C)(C)Cc5ccc([N+](=O)[O-])cc5)cc43)[nH]c2c(OC)c1OC (stereo not given) | 2.32 µM (inactive) | 2.29 µM (inactive) | 5.74 µM (inactive) | 2.05 µM (inactive) | 3.25 µM (inactive) | 3.05 µM (inactive) | 1.83 µM (inactive) | 3.2 | 2.77 µM (inactive) | 3.53 µM (inactive) | 2.48 µM (inactive) | 2.82 µM (inactive) | 1.96 µM (inactive) | 1.75 µM (inactive) | 2.01 µM (inactive) | 3.39 µM (inactive) | 2.58 µM (inactive) | 1.5 µM (inactive) | 1.83 µM (inactive) |
| CCO[C@H]1C[C@@H](c2ccccc2)[C@]2(C)C[C@H](C(=O)OC)ON2O1 | > 100 µM (inactive) | > 100 µM (inactive) | > 100 µM (inactive) | > 100 µM (inactive) | > 100 µM (inactive) | > 100 µM (inactive) | > 100 µM (inactive) | > 100 | > 100 µM (inactive) | > 100 µM (inactive) | > 100 µM (inactive) | > 100 µM (inactive) | > 100 µM (inactive) | > 100 µM (inactive) | > 100 µM (inactive) | > 100 µM (inactive) | > 100 µM (inactive) | > 100 µM (inactive) | > 100 µM (inactive) |
| Nc1nc(-c2ccccc2)c(CC(=O)O)s1 | > 100 µM (inactive) | > 100 µM (inactive) | > 100 µM (inactive) | > 100 µM (inactive) | > 100 µM (inactive) | > 100 µM (inactive) | > 100 µM (inactive) | > 100 | > 100 µM (inactive) | > 100 µM (inactive) | > 100 µM (inactive) | > 100 µM (inactive) | > 100 µM (inactive) | > 100 µM (inactive) | > 100 µM (inactive) | > 100 µM (inactive) | > 100 µM (inactive) | > 100 µM (inactive) | > 100 µM (inactive) |
| Cc1c(C)c(S(=O)(=O)N(CCCCCN)OCCCN)c(C)c2c1OC(C)(C)CC2 | 6.62 µM (inactive) | 17.2 µM (inactive) | 13.5 µM (inactive) | 20.5 µM (inactive) | 12.2 µM (inactive) | 25.1 µM (inactive) | 5.98 µM (inactive) | 18.6 | 2.92 µM (inactive) | 4.73 µM (inactive) | 14.3 µM (inactive) | 8.89 µM (inactive) | 5.9 µM (inactive) | 15.6 µM (inactive) | 3.6 µM (inactive) | 10 µM (inactive) | 17.4 µM (inactive) | 7.8 µM (inactive) | 13.8 µM (inactive) |
| C=C1c2nc3ccccc3n2C=C(c2ccc(C)cc2)N1c1ccc(C)cc1 | 78.3 µM (inactive) | > 78 µM (inactive) | 51.6 µM (inactive) | > 100 µM (inactive) | 28.8 µM (inactive) | > 83.4 µM (inactive) | 43.7 µM (inactive) | 23.8 | 23.8 µM (inactive) | 20.6 µM (inactive) | > 63.2 µM (inactive) | 7.08 µM (inactive) | 64.7 µM (inactive) | 18.9 µM (inactive) | 21.4 µM (inactive) | > 100 µM (inactive) | 50.9 µM (inactive) | 36.8 µM (inactive) | 67.3 µM (inactive) |
| NS(=O)(=O)c1ccc(NC(=O)Nc2ccccc2F)cc1 | > 100 µM (inactive) | > 100 µM (inactive) | > 100 µM (inactive) | > 100 µM (inactive) | > 100 µM (inactive) | > 100 µM (inactive) | > 100 µM (inactive) | > 100 | > 100 µM (inactive) | > 100 µM (inactive) | > 100 µM (inactive) | > 100 µM (inactive) | > 100 µM (inactive) | > 100 µM (inactive) | > 100 µM (inactive) | > 100 µM (inactive) | 0.243 µM (active) | > 100 µM (inactive) | > 100 µM (inactive) |
| COC(=O)C(Cc1c[nH]c2ccccc12)NC1=Nc2ccncc2S(=O)(=O)N1c1cccc(OC(C)C)c1 (stereo not given) | 34.2 µM (inactive) | 41.1 µM (inactive) | 27.8 µM (inactive) | 32.4 µM (inactive) | 30.3 µM (inactive) | 32.8 µM (inactive) | 35.4 µM (inactive) | 43.2 | 63.2 µM (inactive) | 67.3 µM (inactive) | 56.1 µM (inactive) | > 100 µM (inactive) | 36 µM (inactive) | 30.3 µM (inactive) | 15.5 µM (inactive) | 41.9 µM (inactive) | 42 µM (inactive) | 92.5 µM (inactive) | > 100 µM (inactive) |
| NC1(C(=O)OCc2ccccc2)CCCC1 | 18 µM (inactive) | 15.2 µM (inactive) | 17.1 µM (inactive) | 19.4 µM (inactive) | 28.1 µM (inactive) | 16.6 µM (inactive) | 18 µM (inactive) | 22.9 | 26 µM (inactive) | 20.1 µM (inactive) | 16.5 µM (inactive) | 30.1 µM (inactive) | 11.6 µM (inactive) | 12.9 µM (inactive) | 14.2 µM (inactive) | 15.1 µM (inactive) | 15.9 µM (inactive) | 36.6 µM (inactive) | 19.2 µM (inactive) |
| CC(C)(O)CCc1ccc(O)c2c(=O)c3c(O)c4c(cc3oc12)O[C@H]1OC=C[C@@]41O [AUSTOCYSTIN D] | 7.06 µM (inactive) | < 0.01 µM (active) | 9.06 µM (inactive) | < 0.01 µM (active) | 0.0109 µM (active) | < 0.01 µM (active) | 0.0199 µM (active) | < 0.01 | < 0.01 µM (active) | < 0.01 µM (active) | 1.08 µM (active) | < 0.01 µM (active) | < 0.01 µM (active) | < 0.01 µM (active) | 0.475 µM (active) | 0.056 µM (active) | 8.87 µM (inactive) | < 0.01 µM (active) | 0.0184 µM (active) |
| [O-][n+]1onc2c3nn(-c4ccccc4)nc3ccc21 | > 100 µM (inactive) | 88.3 µM (inactive) | > 82.6 µM (inactive) | > 100 µM (inactive) | 61.8 µM (inactive) | 17.8 µM (inactive) | > 100 µM (inactive) | 49.5 | 18.6 µM (inactive) | > 100 µM (inactive) | > 100 µM (inactive) | > 100 µM (inactive) | 22.2 µM (inactive) | > 91.4 µM (inactive) | 6.32 µM (inactive) | > 86.7 µM (inactive) | > 100 µM (inactive) | 65.8 µM (inactive) | 28.8 µM (inactive) |
| CC(=O)NC1C(OCc2ccccc2)OC(CO)C(O)C1OCC(=O)N1CCCC1C(=O)NC(CCC(=O)NCCCCCNc1c2ccccc2nc2cccc([N+](=O)[O-])c12)C(N)=O (stereo not given) | 0.0131 µM (active) | 0.00865 µM (active) | 0.0524 µM (active) | 0.0262 µM (active) | 0.0144 µM (active) | 0.0192 µM (active) | 0.00433 µM (active) | 0.0164 | 0.02 µM (active) | 0.019 µM (active) | 0.0188 µM (active) | 0.114 µM (active) | 0.0301 µM (active) | 0.00497 µM (active) | 0.00331 µM (active) | 0.0201 µM (active) | 0.048 µM (active) | 0.00399 µM (active) | 0.0481 µM (active) |
| N#Cc1nc(CCCCCN2C(=O)c3ccccc3C2=O)oc1N | > 100 µM (inactive) | > 100 µM (inactive) | 25.7 µM (inactive) | > 100 µM (inactive) | > 100 µM (inactive) | > 100 µM (inactive) | > 100 µM (inactive) | > 100 | > 100 µM (inactive) | > 100 µM (inactive) | > 100 µM (inactive) | > 100 µM (inactive) | > 100 µM (inactive) | > 100 µM (inactive) | 21.1 µM (inactive) | > 100 µM (inactive) | > 100 µM (inactive) | > 100 µM (inactive) | > 100 µM (inactive) |
| N=C1/C(=C/c2ccco2)C(=O)N=C2SC=NN12 | > 100 µM (inactive) | > 100 µM (inactive) | > 100 µM (inactive) | > 100 µM (inactive) | > 100 µM (inactive) | > 100 µM (inactive) | > 100 µM (inactive) | > 100 | > 100 µM (inactive) | > 100 µM (inactive) | > 100 µM (inactive) | > 100 µM (inactive) | > 100 µM (inactive) | > 100 µM (inactive) | > 100 µM (inactive) | > 100 µM (inactive) | > 100 µM (inactive) | > 100 µM (inactive) | > 100 µM (inactive) |
| COc1ccc2c(c1)[C@@]13CCN4CC5=CCO[C@H]6CC(=O)N2[C@H]1[C@H]6[C@H]5C[C@H]43 | > 100 µM (inactive) | > 100 µM (inactive) | > 100 µM (inactive) | > 100 µM (inactive) | 84.9 µM (inactive) | > 100 µM (inactive) | > 100 µM (inactive) | > 100 | > 100 µM (inactive) | > 100 µM (inactive) | 90.4 µM (inactive) | 0.178 µM (active) | > 100 µM (inactive) | 59.2 µM (inactive) | > 100 µM (inactive) | > 100 µM (inactive) | 70 µM (inactive) | > 100 µM (inactive) | > 100 µM (inactive) |
| CSc1nc2ccccc2c(=O)n1-c1cccc(C)c1 | > 100 µM (inactive) | 97.9 µM (inactive) | > 100 µM (inactive) | 95.1 µM (inactive) | 48.9 µM (inactive) | > 100 µM (inactive) | 47.8 µM (inactive) | 36.2 | 45.3 µM (inactive) | 23.6 µM (inactive) | > 100 µM (inactive) | > 100 µM (inactive) | > 100 µM (inactive) | > 100 µM (inactive) | 39.4 µM (inactive) | 99.1 µM (inactive) | 95.5 µM (inactive) | 31.9 µM (inactive) | 31.1 µM (inactive) |
